Data published in patent publication US8431378B2, “Aminotransferase, gene encoding the same, and methods of using them” (Kaneka Corporation, priority 2005, dated 2013).
“Also recorded” adds a separate entry of the source.

Legend:
[1] = tested on: purified enzyme MTA (aminotransferase); test: Specificity for amino acceptor, (S)-α-phenethylamine as donor (Examples 5 and 6); type: biochemical, Pseudomonas fluorescens KNK08-18; conditions: for Activity as amino acceptor (in words): donor (S)-α-phenethylamine
Procedure: The purified enzyme obtained in Example 1 was analyzed in terms of substrate specificity regarding amino acceptors. In 20 μL of the purified Enzyme, 380 μL of a 0.1M potassium phosphate buffer containing 14 mM of (S)-α-phenethylamine and 14 mM of a ketone compound of various type was added. After the mixture was reacted at 30° C. for 1 hour, 20 μL of 3N hydrochloric acid was added therein to stop the reaction. Results of the analysis are shown in Table 3, in which the relative activities are shown where the activity with pyruvic acid as the amino acceptor is 100.
(§1) [Analysis Conditions of High-Performance Liquid Chromatography]
(§2) • Column: Cosmosil 5C8-MS (Nacalai Tesque Inc.) • Carrier: 30 mM potassium phosphate buffer (pH 2.5)/acetonitrile/methanol=4/1/1 (by volume) • Flow Rate: 0.9 mL/min • Detection: 254 nm
The purified enzyme obtained in Example 1 was analyzed in terms of substrate specificity regarding amino acceptors in the same manner as in Example 5.

[2] = tested on: purified enzyme MTA (aminotransferase); test: Specificity for amino donor, 7-methoxy-2-tetralone as amino acceptor (Example 3); type: biochemical, Pseudomonas fluorescens KNK08-18; conditions: for Relative Activity (%): amino donor varied, 14 mM (racemic 28 mM), acceptor 14 mM 7-methoxy-2-tetralone, 30° C., 1 hour, activity with (S)-α-phenethylamine is 100
Procedure: In 20 μL of the purified Enzyme, 380 μL of a 0.1M potassium phosphate buffer containing 14 mM of 7-methoxy-2-tetralone and 14 mM (in case of the racemic amine compound, 28 mM)) of an amine compound of various type was added. After the mixture was reacted at 30° C. for 1 hour, 20 μL of 3N hydrochloric acid was added therein to stop the reaction. The reaction solution thus obtained was analyzed via high-performance liquid chromatography so as to quantitatively analyze 7-methoxy-2-aminotetralin thus obtained. Thereby, the amino group transfer activities with the various amino compounds were analyzed.
as §1, §2

[3] = tested on: purified enzyme MTA (aminotransferase); test: Specificity for amino donor, pyruvic acid as acceptor, dabsylated alanine quantified (Example 4); type: biochemical, Pseudomonas fluorescens KNK08-18; conditions: for Amino group transfer activity as amino donor (in words): acceptor pyruvic acid; for Relative Activity (%): amino donor varied, 14 mM, acceptor 14 mM pyruvic acid, pH 7.5, 30° C., 1 hour, activity with (S)-α-phenethylamine is 100
Procedure: (§3) The amino group transfer activity measurement is carried out as follows: Firstly, 20 μL of a purified enzyme solution having a protein concentration of 0.2 mg/mL is added to 380 μL of a substrate solution having the following composition. After carrying out reaction at 30° C. for 1 hour therein, 20 μL of 3N hydrochloric acid is added therein to stop the reaction. Then, into 20 μL of the resultant reaction mixture, a 0.2M sodium carbonate aqueous solution of 80 μL and an acetone solution of 200 μL containing dabsyl chloride by 3.3 mg/mL are added. Then, the resultant mixture is reacted at 70° C. for 10 min. After 20 μL of acetic acid is added therein with stirring. The reaction mixture thus obtained is analyzed by high-performance liquid chromatography thereby to quantitatively analyze dabsylated alanine.
as §3, with “purified enzyme obtained in Example 1 was analyzed in terms of its reactivity to typical substrates of ω-amino acid transaminase.” for “amino group transfer activity measurement is carried out as follows:”, “was” for “is”, “[…]” for “380 μL”, “were” for “are”, “alanine. Results of the analysis are shown in Table 2, which the amino group transfer activities are shown as relative activities where the activity with (S)-α-phenethylamine as the amino donor is 100.” for “alanine.”
(§4) [Substrate Solution Composition]
(§5) Pyridoxal phosphate 0.02 mM
(§6) Potassium Phosphate Buffer (pH 7.5) 0.1M
(§7) [High-Performance Liquid Chromatography Analysis Conditions]
(§8) Column: Deverosil ODS-HG-3 (Nomura Chemical Co., Ltd.)
(§9) Carrier: Acetonitrile/0.045M acetate buffer (pH 4.1)=35/65 (by volume)

MTA (present invention) = test: Substrate specificity, comparison with ω-amino acid transaminase (Example 7), Enzyme A; type: biochemical, Pseudomonas fluorescens KNK08-18; conditions: for Reactivity as amino donor (in words): Enzyme A (MTA), receptor pyruvic acid or 2-ketoglutaric acid; for Relative activity, Enzyme A: donor 14 mM, activity with (S)-α-phenethylamine is 100
Procedure: The purified enzyme obtained in Example 1 was analyzed in terms of its reactivity to typical substrates of ω-amino acid transaminase. Firstly, 20 μL of a purified enzyme solution having a protein concentration of 0.2 mg/mL was added to 380 μL of a substrate solution having the following composition. After carrying out reaction at 30° C. for 1 hour therein, 20 μL of 3N hydrochloric acid was added therein to stop the reaction. Then, into 20 μL of the resultant reaction mixture, a 0.2M sodium carbonate aqueous solution of 80 μL and an acetone solution of 200 μL containing dabsyl chloride by 3.3 mg/mL were added. Then, the resultant mixture was reacted at 70° C. for 10 min. After 20 μL of acetic acid was added therein with stirring. The reaction mixture thus obtained was analyzed by high-performance liquid chromatography thereby to quantitatively analyze dabsylated alanine or […]. Results of the analysis are shown in Table 5, in which the relative activities are shown where the activity with (S)-α-phenethylamine as the amino donor is 100. In Table 5, the values of activities of ω-amino acid:pyruvic acid transaminase and 4-amino butyric acid: 2-ketoglutaric acid transaminase are from the literatures “Agric. Biol. Chem. 41, 1701-1706 (1977), Arch. Biochem. Biophys. 200, 156-164 (1980)”.
as §4
Pyruvic acid or 2-ketoglutaric acid 14 mM
as §5, §6, §7, §8, §9

[4] = tested on: 4-Aminobutylic Acid: 2-Ketoglutaric Acid Transaminase; conditions: amino group receptor 2-ketoglutaric acid; values from the literature; cited from earlier work
[5] = target: T1, ω-Amino Acid: Pyruvic Acid Transaminase (Pseudomonas putida, UniProt P28269); conditions: amino group receptor pyruvic acid; values from the literature; cited from earlier work
T1 sequence (P28269 1-449): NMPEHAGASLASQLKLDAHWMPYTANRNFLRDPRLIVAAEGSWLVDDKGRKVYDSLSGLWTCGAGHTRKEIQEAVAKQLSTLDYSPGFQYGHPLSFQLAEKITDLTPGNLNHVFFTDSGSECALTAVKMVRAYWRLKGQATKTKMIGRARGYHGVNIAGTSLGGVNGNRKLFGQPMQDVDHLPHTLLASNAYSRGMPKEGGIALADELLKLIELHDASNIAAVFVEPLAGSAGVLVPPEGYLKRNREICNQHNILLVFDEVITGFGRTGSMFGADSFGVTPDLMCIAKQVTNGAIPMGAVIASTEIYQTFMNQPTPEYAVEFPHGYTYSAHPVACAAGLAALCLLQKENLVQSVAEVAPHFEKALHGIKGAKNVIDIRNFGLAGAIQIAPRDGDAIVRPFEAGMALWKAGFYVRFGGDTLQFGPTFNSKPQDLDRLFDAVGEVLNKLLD

[6] = Table 4: amino acceptor varied, same manner as in Example 5, donor (S)-α-phenethylamine
[7] = Table 3: amino acceptor varied, 14 mM, donor 14 mM (S)-α-phenethylamine, 30° C., 1 hour, activity with pyruvic acid is 100
[8] = amino group receptor 2-ketoglutaric acid 14 mM
[9] = amino group receptor pyruvic acid 14 mM

## CC(=O)c1cccnc1 [3-Acetylpyridine]
[1]; [6]
  Relative Activity (%): 10%

## CCC(=O)C(=O)O [2-Ketobutyric Acid]
[1]; [7]
  Relative Activity (%): 2%

## COCC(C)=O [Methoxypropanone]
[1]; [6]
  Relative Activity (%): 13%

## CCC(C)N (racemic) [±2-butylamine]
[2]
  Relative Activity (%): 48%

## CC(=O)c1cnccn1 [Acetylpyrazine]
[1]; [6]
  Relative Activity (%): 100%

## CCCC=O [Butylaldehyde]
[1]; [7]
  Relative Activity (%): 18%

## CCN [n-ethylamine]
[2]
  Relative Activity (%): 6%

## NCCCCC(N)C(=O)O (racemic) [DL-lysine]
[2]
  Relative Activity (%): 0%
[3]
  Amino group transfer activity as amino donor (in words): no activity; also recorded: substantially inactive
  Relative Activity (%): 0%

## O=C(O)CCC(=O)C(=O)O [2-Ketoglutaric Acid]
[1]; [7]
  Relative Activity (%): 0%
[1]
  Activity as amino acceptor (in words): no activity

## NCCCC(=O)O [4-Aminobutyric Acid]
MTA (present invention)
  Reactivity as amino donor (in words): not reactive
MTA (present invention); [8]
  Relative activity, Enzyme A: 0
[4]
  Relative activity, Enzyme C: 100

## CC(C)CN [isobutylamine]
[2]
  Relative Activity (%): 8%

## CC(N)CCc1ccccc1 (racemic) [±3-amino-1-phenylbutane]
[2]
  Relative Activity (%): 90%

## CCCCC(N)CC (racemic) [±3-heptylamine]
[2]
  Relative Activity (%): 19%

## COc1cccc(C(C)=O)c1 [3′-Methoxyacetophenone]
[1]; [6]
  Relative Activity (%): 10%

## O=C1CCc2ccccc2C1 [2-Tetralone]
[1]; [6]
  Relative Activity (%): 17%

## CCCC(=O)C(=O)O [2-Keto-n-Valeric Acid]
[1]; [7]
  Relative Activity (%): 0.1%

## NCCS(=O)(=O)O [Taurine]
[3]
  Amino group transfer activity as amino donor (in words): no activity; also recorded: substantially inactive
  Relative Activity (%): 0%
MTA (present invention)
  Reactivity as amino donor (in words): not reactive
MTA (present invention); [8]
  Relative activity, Enzyme A: 0
MTA (present invention); [9]
  Relative activity, Enzyme A: 0
[4]
  Relative activity, Enzyme C: 8
[5]
  Relative activity, Enzyme B: 132

## NCCCCN [Putrescine]
[3]
  Amino group transfer activity as amino donor (in words): no activity; also recorded: substantially inactive
  Relative Activity (%): 0%
MTA (present invention)
  Reactivity as amino donor (in words): not reactive
MTA (present invention); [9]
  Relative activity, Enzyme A: 0
[5]
  Relative activity, Enzyme B: 18

## NCCc1ccccc1 [β-phenethylamine]
[2]
  Relative Activity (%): 22%

## CC(=O)c1cccc(C(F)(F)F)c1 [3′-Trifluoromethylacetophenone]
[1]; [6]
  Relative Activity (%): 40%

## CC(=O)CCc1ccccc1 [Benzylacetone]
[1]; [6]
  Relative Activity (%): 33%

## O=C1CCN(Cc2ccccc2)C1 [1-Benzyl-3-Pyrrolidinone]
[1]; [6]
  Relative Activity (%): 20%

## CC(=O)c1ccc(Cl)cc1 [4′-Chloroacetophenone]
[1]; [6]
  Relative Activity (%): 30%

## CCCCN [n-butylamine]
[2]
  Relative Activity (%): 7%

## CCC=O [Propionaldehyde]
[1]; [7]
  Relative Activity (%): 5%

## CC(=O)C(=O)O [Pyruvic Acid, reference compound]
[1]; [7]
  Relative Activity (%): 100%
[1]
  Activity as amino acceptor (in words): high activity; also recorded: active

## COc1ccc(CC(C)N)cc1OC (racemic) [±3′,4′-dimethoxyamphetamine]
[2]
  Relative Activity (%): 88%

## O=CC(=O)O [Glyoxylic Acid]
[1]; [7]
  Relative Activity (%): 99%
[1]
  Activity as amino acceptor (in words): high activity; also recorded: active

## NC1CCCCC1 [cyclohexylamine]
[2]
  Relative Activity (%): 22%

## O=Cc1ccccc1 [Benzaldehyde]
[1]; [7]
  Relative Activity (%): 2%

## NCc1ccccc1 [benzylamine]
[2]
  Relative Activity (%): 35%

## CCCCCC(C)N (racemic) [±2-heptylamine]
[2]
  Relative Activity (%): 93%

## COc1ccc2c(c1)CC(=O)CC2 [7-Methoxy-2-Tetralone]
[1]; [6]
  Relative Activity (%): 10%

## CC(=O)c1cccc(O)c1 [3′-Hydroxyacetophenone]
[1]; [6]
  Relative Activity (%): 3%

## CCCC(C)N (racemic) [±2-pentylamine]
[2]
  Relative Activity (%): 60%

## CCCCCC(C)=O [2-Heptane]
[1]; [6]
  Relative Activity (%): 7%

## CCCN [n-propylamine]
[2]
  Relative Activity (%): 6%

## CCCCCN [n-amylamine]
[2]
  Relative Activity (%): 11%

## C[C@H](N)C(=O)O [L-alanine]
[2]
  Relative Activity (%): 20%

## NCCC(=O)O [β-alanine]
[2]
  Relative Activity (%): 0%
[3]
  Amino group transfer activity as amino donor (in words): substantially inactive
  Relative Activity (%): 0%
[3]; listed as Valanine
  Amino group transfer activity as amino donor (in words): no activity
MTA (present invention)
  Reactivity as amino donor (in words): not reactive
MTA (present invention); [8]
  Relative activity, Enzyme A: 0
MTA (present invention); [9]
  Relative activity, Enzyme A: 0
[4]
  Relative activity, Enzyme C: 0
[5]
  Relative activity, Enzyme B: 100

## C[C@H](N)c1ccccc1 [(S)-α-phenethylamine, reference compound]
[2]; acceptor 7-methoxy-2-tetralone
  Amino group transfer activity as amino donor (in words): especially high activity
[2]
  Relative Activity (%): 100%
[3]
  Amino group transfer activity as amino donor (in words): active
  Relative Activity (%): 100%
MTA (present invention)
  Reactivity as amino donor (in words): highly active
MTA (present invention); [9]
  Relative activity, Enzyme A: 100

## CC(C)N [isopropylamine]
[2]
  Relative Activity (%): 10%
